Reference: the supplement of paper PMC10331698
± gives the standard deviation of the averaged measurements.

Key:
Test in all cases: level (log10 ratio to DMSO vehicle control); higher = higher biomarker level / cell amount than vehicle control
Details in all cases: in DMSO
[1] = compound: COC(=O)C(F)(F)C(F)(F)OC(F)(C(F)(F)F)C(F)(F)OC(F)=C(F)F [Methyl perfluoro(3-(1-ethenyloxypropan-2-yloxy)propanoate)]
Description: (§1)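 BioMAP Diversity Plus panel of 12 human primary cell co-culture systems (3C, 4H, LPS, SAg, BT, BF4T, BE3C, CASM3C, HDF3CGF, KF3CT, MyoF, Mphg). Compounds were added 1 h before stimulation and left for 24 h (MyoF 48 h; BT 72 h for soluble read-outs or 6 d for IgG). Biomarkers were read by ELISA, cytotoxicity by SRB, PBMC viability and proliferation by Alamar Blue. Each well value was divided by the mean of 8 DMSO control wells on the same plate and log10 transformed; duplicate blinded samples were tested at 4 concentrations.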

[2] = compound: FC(F)(F)C(F)(F)C(F)(F)C(F)(F)C(F)(F)C(F)(F)CC1CO1 [3-(Perfluorohexyl)-1,2-epoxypropane]
Description: as §1

[3] = compound: FC(F)(F)C(F)(F)C(F)(F)CC1CO1 [1H,1H-Heptafluorobutyl epoxide]
Description: as §1

Heptafluorobutyl iodide = compound: FC(F)(F)C(F)(F)C(F)(F)CI [Heptafluorobutyl iodide]
Description: as §1

Nonafluoropentanamide = compound: NC(=O)C(F)(F)C(F)(F)C(F)(F)C(F)(F)F [Nonafluoropentanamide]
Description: as §1

[4] = compound: NC(=O)C(F)(F)C(F)(F)C(F)(F)C(F)F
Description: as §1

[5] = compound: O=C(O)C(F)(F)C(F)(F)C(F)(F)C(F)(F)C(F)(F)C(F)(F)C(F)(F)C(F)(F)C(F)(F)C(F)F [11-H-Perfluoroundecanoic acid]
Description: as §1

Test System: 4H:CD87/uPAR
- level (log10) ([1]; 6700 nM): 0.0215 ± 0.019
- level (log10) ([1]; 20000 nM): 0.047 ± 0.044
- level (log10) ([2]; 6700 nM): 0.0645 ± 0.044
- level (log10) ([2]; 20000 nM): 0.0775 ± 0.018
- level (log10) ([2]; 60000 nM): 0.107 ± 0.022
- level (log10) ([3]; 6700 nM): -0.0465 ± 0.06
- level (log10) ([3]; 20000 nM): -0.055 ± 0.045
- level (log10) ([3]; 60000 nM): -0.006 ± 0.021
- level (log10) (Heptafluorobutyl iodide; 6700 nM): 0.0585 ± 0.04
- level (log10) (Heptafluorobutyl iodide; 20000 nM): 0.0055 ± 0.0035
- level (log10) (Heptafluorobutyl iodide; 60000 nM): -0.024 ± 0.025
- level (log10) (Nonafluoropentanamide; 6700 nM): -0.032 ± 0.0071
- level (log10) (Nonafluoropentanamide; 20000 nM): 0.0085 ± 0.005
- level (log10) (Nonafluoropentanamide; 60000 nM): 0.009 ± 0.041
- level (log10) ([4]; 6700 nM): 0.0335 ± 0.013
- level (log10) ([4]; 20000 nM): 0.044 ± 0.033
- level (log10) ([4]; 60000 nM): 0.006 ± 0.038
- level (log10) ([5]; 6700 nM): -0.0115 ± 0.033
- level (log10) ([5]; 20000 nM): -0.0295 ± 0.05

Test System: 4H:SRB
- level (log10) ([1]; 6700 nM): -0.0015 ± 0.00071
- level (log10) ([1]; 20000 nM): 0.007 ± 0.014
- level (log10) ([2]; 6700 nM): 0.007 ± 0.0028
- level (log10) ([2]; 20000 nM): -0.003 ± 0.0057
- level (log10) ([2]; 60000 nM): 0.015 ± 0.023
- level (log10) ([3]; 6700 nM): 0.008 ± 0.023
- level (log10) ([3]; 20000 nM): 0.007 ± 0.0057
- level (log10) ([3]; 60000 nM): -0.02 ± 0.0071
- level (log10) (Heptafluorobutyl iodide; 6700 nM): -0.001 ± 0.0028
- level (log10) (Heptafluorobutyl iodide; 20000 nM): 0.0045 ± 0.0064
- level (log10) (Heptafluorobutyl iodide; 60000 nM): 0.011 ± 0.0099
- level (log10) (Nonafluoropentanamide; 6700 nM): -0.0055 ± 0.00071
- level (log10) (Nonafluoropentanamide; 20000 nM): -0.0055 ± 0.011
- level (log10) (Nonafluoropentanamide; 60000 nM): 0.0055 ± 0.021
- level (log10) ([4]; 6700 nM): -0.0195 ± 0.0078
- level (log10) ([4]; 20000 nM): -0.0055 ± 0.005
- level (log10) ([4]; 60000 nM): -0.017 ± 0.021
- level (log10) ([5]; 6700 nM): 0.0145 ± 0.0092
- level (log10) ([5]; 20000 nM): 0.0105 ± 0.018

Test System: BE3C:Keratin 8/18
- level (log10) ([1]; 6700 nM): -0.0095 ± 0.049
- level (log10) ([1]; 20000 nM): -0.004 ± 0.025
- level (log10) ([2]; 6700 nM): -0.0045 ± 0.00071
- level (log10) ([2]; 20000 nM): -0.0115 ± 0.00071
- level (log10) ([2]; 60000 nM): 0.0015 ± 0.018
- level (log10) ([3]; 6700 nM): -0.0125 ± 0.011
- level (log10) ([3]; 20000 nM): 0.019 ± 0.021
- level (log10) ([3]; 60000 nM): 0.011 ± 0.047
- level (log10) (Heptafluorobutyl iodide; 6700 nM): 0.0025 ± 0.0078
- level (log10) (Heptafluorobutyl iodide; 20000 nM): -0.0025 ± 0.00071
- level (log10) (Heptafluorobutyl iodide; 60000 nM): 0.005 ± 0.013
- level (log10) (Nonafluoropentanamide; 6700 nM): -0.0245 ± 0.0064
- level (log10) (Nonafluoropentanamide; 20000 nM): -0.035 ± 0.013
- level (log10) (Nonafluoropentanamide; 60000 nM): -0.026 ± 0.0099
- level (log10) ([4]; 6700 nM): -0.0045 ± 0.0092
- level (log10) ([4]; 20000 nM): -0.0025 ± 0.005
- level (log10) ([4]; 60000 nM): -0.0185 ± 0.033
- level (log10) ([5]; 6700 nM): -0.0125 ± 0.025
- level (log10) ([5]; 20000 nM): -0.0805 ± 0.019

Test System: BE3C:MMP-1
- level (log10) ([1]; 6700 nM): 0.102 ± 0.025
- level (log10) ([1]; 20000 nM): 0.176 ± 0.0092
- level (log10) ([2]; 6700 nM): 0.022 ± 0.075
- level (log10) ([2]; 20000 nM): 0.0255 ± 0.061
- level (log10) ([2]; 60000 nM): 0.0655 ± 0.03
- level (log10) ([3]; 6700 nM): 0.003 ± 0.027
- level (log10) ([3]; 20000 nM): 0.002 ± 0.055
- level (log10) ([3]; 60000 nM): 0.041 ± 0.092
- level (log10) (Heptafluorobutyl iodide; 6700 nM): 0 ± 0.0014
- level (log10) (Heptafluorobutyl iodide; 20000 nM): -0.0085 ± 0.005
- level (log10) (Heptafluorobutyl iodide; 60000 nM): 0.02 ± 0.0099
- level (log10) (Nonafluoropentanamide; 6700 nM): 0.003 ± 0.0071
- level (log10) (Nonafluoropentanamide; 20000 nM): 0.052 ± 0.075
- level (log10) (Nonafluoropentanamide; 60000 nM): 0.0795 ± 0.023
- level (log10) ([4]; 6700 nM): 0.003 ± 0.054
- level (log10) ([4]; 20000 nM): -0.001 ± 0.0014
- level (log10) ([4]; 60000 nM): 0.024 ± 0.0057
- level (log10) ([5]; 6700 nM): 0.068 ± 0.013
- level (log10) ([5]; 20000 nM): -0.132 ± 0.012

Test System: BE3C:MMP-9
- level (log10) ([1]; 6700 nM): -0.041 ± 0.038
- level (log10) ([1]; 20000 nM): -0.004 ± 0.0057
- level (log10) ([2]; 6700 nM): -0.036 ± 0.0042
- level (log10) ([2]; 20000 nM): -0.036
- level (log10) ([2]; 60000 nM): -0.004 ± 0.042
- level (log10) ([3]; 6700 nM): -0.0065 ± 0.0078
- level (log10) ([3]; 20000 nM): 0.015 ± 0.014
- level (log10) ([3]; 60000 nM): -0.013 ± 0.0014
- level (log10) (Heptafluorobutyl iodide; 6700 nM): -0.005 ± 0.0014
- level (log10) (Heptafluorobutyl iodide; 20000 nM): -0.0085 ± 0.0064
- level (log10) (Heptafluorobutyl iodide; 60000 nM): 0.0115 ± 0.015
- level (log10) (Nonafluoropentanamide; 6700 nM): -0.0405 ± 0.03
- level (log10) (Nonafluoropentanamide; 20000 nM): -0.026 ± 0.0071
- level (log10) (Nonafluoropentanamide; 60000 nM): -0.0095 ± 0.005
- level (log10) ([4]; 6700 nM): -0.007 ± 0.0014
- level (log10) ([4]; 20000 nM): -0.0045 ± 0.0092
- level (log10) ([4]; 60000 nM): 0.0095 ± 0.023
- level (log10) ([5]; 6700 nM): -0.058 ± 0.04
- level (log10) ([5]; 20000 nM): -0.277 ± 0.049

Test System: BE3C:PAI-I
- level (log10) ([1]; 6700 nM): 0.0185 ± 0.019
- level (log10) ([1]; 20000 nM): 0.037 ± 0.0071
- level (log10) ([2]; 6700 nM): -0.003 ± 0.0014
- level (log10) ([2]; 20000 nM): -0.006 ± 0.0028
- level (log10) ([2]; 60000 nM): 0.013 ± 0.0099
- level (log10) ([3]; 6700 nM): 0.0035 ± 0.0092
- level (log10) ([3]; 20000 nM): 0.0075 ± 0.005
- level (log10) ([3]; 60000 nM): 0.0165 ± 0.025
- level (log10) (Heptafluorobutyl iodide; 6700 nM): -0.018 ± 0.017
- level (log10) (Heptafluorobutyl iodide; 20000 nM): -0.027 ± 0.025
- level (log10) (Heptafluorobutyl iodide; 60000 nM): -0.0085 ± 0.016
- level (log10) (Nonafluoropentanamide; 6700 nM): -0.087 ± 0.033
- level (log10) (Nonafluoropentanamide; 20000 nM): -0.137 ± 0.052
- level (log10) (Nonafluoropentanamide; 60000 nM): -0.117 ± 0.044
- level (log10) ([4]; 6700 nM): 0.0065 ± 0.0064
- level (log10) ([4]; 20000 nM): -0.0055 ± 0.0035
- level (log10) ([4]; 60000 nM): 0 ± 0.0028
- level (log10) ([5]; 6700 nM): -0.082 ± 0.018
- level (log10) ([5]; 20000 nM): -0.367 ± 0.047

Test System: BE3C:SRB
- level (log10) ([1]; 6700 nM): -0.005 ± 0.0042
- level (log10) ([1]; 20000 nM): 0.001 ± 0.0057
- level (log10) ([2]; 6700 nM): 0.008 ± 0.0057
- level (log10) ([2]; 20000 nM): 0.0025 ± 0.0064
- level (log10) ([2]; 60000 nM): 0.011 ± 0.018
- level (log10) ([3]; 6700 nM): -0.0035 ± 0.00071
- level (log10) ([3]; 20000 nM): 0.0015 ± 0.00071
- level (log10) ([3]; 60000 nM): 0.007
- level (log10) (Heptafluorobutyl iodide; 6700 nM): 0.002 ± 0.0028
- level (log10) (Heptafluorobutyl iodide; 20000 nM): -0.003 ± 0.0071
- level (log10) (Heptafluorobutyl iodide; 60000 nM): 0.0035 ± 0.00071
- level (log10) (Nonafluoropentanamide; 6700 nM): 0.0035 ± 0.011
- level (log10) (Nonafluoropentanamide; 20000 nM): 0.0065 ± 0.0035
- level (log10) (Nonafluoropentanamide; 60000 nM): -0.0005 ± 0.005
- level (log10) ([4]; 6700 nM): -0.0035 ± 0.0035
- level (log10) ([4]; 20000 nM): 0.0005 ± 0.005
- level (log10) ([4]; 60000 nM): -0.0055 ± 0.0021
- level (log10) ([5]; 6700 nM): -0.0095 ± 0.0064
- level (log10) ([5]; 20000 nM): -0.235 ± 0.011
